{"source": "paper PMC3049593", "about": "(British Journal of Cancer, 2011)", "key": {"[1]": {"test_system": "angiogenesis (endothelial cells, rat aortic ring)", "parameters": "method as in Dredge et al, 2010", "settings": "endothelial cell assays in vitro and ex vivo rat aortic ring assay; ref Dredge et al, 2010; cited from earlier work"}, "[2]": {"test_system": "HT-29 tumours and metastases", "assay": "intrasplenic HT-29 colon xenograft spontaneous metastasis model", "type": "in vivo, mice", "procedure": "(§1) In the orthotopic Hep3b2.1-7 human liver cancer model, treatment of mice (n=10) began 14 days after inoculation of 2.5 × 10^6 cells. […] To initiate tumour xenografts, MDA-MB-231, PC3, Cal27 and HepG2 cells were injected s.c. into nude mice (n=8) at 4, 5, 2 and 2 × 10^7 cells ml^−1, respectively. […] In the B16F0 lung metastasis model, 2 × 10^5 cells were injected via the tail vein of C57Bl6 mice (n=8). […] Surface lung macrometastases were counted for each group (n=9) upon study termination. In the intrasplenic HT-29 xenograft model, 1 × 10^6 cells in 100 μl were injected into the spleen. […] Solid tumours were measured in two dimensions (length and width) and the tumour volume (cm^3) was calculated using the equation: V=length × width^2 × π/6. The anti-tumour activity was expressed as percent tumour growth inhibition (%TGI). Further details are available in Supplementary Methods. […]\nonce weekly or Sorafenib (60mg/kg, once daily, p.o.). The treatments were continued for three weeks. The lungs were excised from all mice at the time of culling for metastasis count determination. Surface lung macrometastases were counted for each group upon […]\nIn the HT-29 model, the lumbar region skin was sterilized with 5% tincture and 75% ethanol, respectively. One-cm-long incision was made to expose the spleen before 1×10^6 cells in 100 µL was injected into the spleen. […]\nmg/kg) was administered to mice (n=12) each week (qw) over 8 weeks and surface liver and colon metastatic nodules were counted for each group (n=12) upon study termination. Spleen and liver weights were also measured as indirect assessment of […]\nIn relevant models, solid tumours were measured in two dimensions (length and width) and the tumour volume (mm3) calculated using the equation V = length × width2 × π/6.The anti-tumour activity was assessed by the comparison of the mean tumour volume of the treated groups to the mean tumour volume of the control group and expressed as the percent Tumour Growth Inhibition (TGI) using the equation: […]"}, "B16F0 lung metastases": {"test_system": "B16F0 lung metastases", "assay": "B16F0 experimental lung metastasis model", "type": "in vivo, C57Bl6 mice", "settings": "20 mg kg^−1", "procedure": "as §1\nantibody. […]\nstaining. For quantification, three independent visual fields (20x magnification) were chosen and positive stained spots or vessels with identifiable lumen were counted.\nAngiogenesis inhibition and induction were calculated using the equations: […]\nregimen both before and after tumour cell inoculation (days -6, -3, 0, +3, +6) or only after tumour cell inoculation (days 0, +3, +6). B16 cell (2x105) were inoculated via tail vein injections and mice were culled and assessed for lung metastases on day 12. […]"}, "HepG2 cells": {"test_system": "HepG2 cells", "assay": "in vitro cytotoxicity (LC50)", "type": "cell-based", "settings": "read-out: LC50 (concentration lethal to 50% of cells)"}, "[3]": {"assay": "body weight loss in tumour-bearing mice", "type": "in vivo", "settings": "for body weight loss at the end of the study: MDA-MB-231 model"}, "[4]": {"assay": "toxicity / toxicology studies", "type": "in vivo"}, "[5]": {"settings": "qw, 20 mg kg^−1, after 8th week of administration"}}}
{"compound": "CC(C)CCC[C@@H](C)[C@H]1CCC2C3CCC4C[C@@H](O[C@@H]5O[C@H](COS(=O)(=O)[O-])[C@@H](O[C@H]6O[C@H](COS(=O)(=O)[O-])[C@@H](O[C@H]7O[C@H](COS(=O)(=O)[O-])[C@@H](O[C@H]8O[C@H](COS(=O)(=O)[O-])[C@@H](OS(=O)(=O)[O-])[C@H](OS(=O)(=O)[O-])[C@H]8OS(=O)(=O)[O-])[C@H](OS(=O)(=O)[O-])[C@H]7OS(=O)(=O)[O-])[C@H](OS(=O)(=O)[O-])[C@H]6OS(=O)(=O)[O-])[C@H](OS(=O)(=O)[O-])[C@H]5OS(=O)(=O)[O-])CC[C@]4(C)C3CC[C@@]21C.[Na+].[Na+].[Na+].[Na+].[Na+].[Na+].[Na+].[Na+].[Na+].[Na+].[Na+].[Na+].[Na+]", "note": "(some centres unmarked) [PG545]", "values": [{"measurement": "angiogenesis inhibitor potency", "setting": "[1]", "value": "≤ 1", "unit": "µM"}, {"measurement": "primary tumour growth", "setting": "[2]; 20 mg kg^−1 qw over 8 weeks", "value": "significantly reduced primary tumour growth"}, {"measurement": "TGI (colon metastases)", "setting": "[2]; [5]", "value": 93, "unit": "%"}, {"measurement": "TGI (liver metastases)", "setting": "[2]; [5]", "value": 100, "unit": "%"}, {"measurement": "TGI (lung metastases)", "setting": "B16F0 lung metastases; days 0, +3, +6", "value": 62, "unit": "%"}, {"measurement": "TGI (lung metastases)", "setting": "B16F0 lung metastases; days −6, −3, 0, +3, +6", "value": 99, "unit": "%"}, {"measurement": "CC50", "setting": "HepG2 cells", "value": "> 100", "unit": "µM"}, {"measurement": "body weight loss nadir", "setting": "[3]; B16 model", "value": 8, "unit": "%"}, {"measurement": "body weight loss nadir", "setting": "[3]; HT-29 model", "value": 12, "unit": "%"}, {"measurement": "body weight loss", "setting": "[3]; Hep3b2.1-7 model, 20 mg kg^−1 followed by twice-weekly 10 mg kg^−1", "value": 4, "unit": "%"}, {"measurement": "body weight loss", "setting": "[3]; Hep3b2.1-7 model, 20 mg kg^−1 twice-weekly", "value": 9, "unit": "%"}, {"measurement": "body weight nadir (loss)", "setting": "[3]; LL/2 model", "value": 5, "unit": "%"}, {"measurement": "body weight loss at the end of the study", "setting": "[3]; 20 mg kg^−1 once-weekly", "value": 4, "unit": "%"}, {"measurement": "body weight loss at the end of the study", "setting": "[3]; 20 mg kg^−1 twice-weekly", "value": 6, "unit": "%"}, {"measurement": "body weight loss at the end of the study", "setting": "[3]; 30 mg kg^−1 once-weekly", "value": 11, "unit": "%"}, {"measurement": "body weight loss at the end of the study", "setting": "[3]; 30 mg kg^−1 twice-weekly", "value": 10, "unit": "%"}, {"measurement": "body weight loss", "setting": "[3]; PC3 model, 20 mg kg^−1 once-weekly", "value": 6, "unit": "%"}, {"measurement": "body weight loss", "setting": "[3]; PC3 model, 20 mg kg^−1 twice-weekly", "value": 16, "unit": "%"}, {"measurement": "activated partial thromboplastin time", "setting": "[4]; high doses, toxicology studies, reversible (data not shown)", "value": "increased activated partial thromboplastin time"}, {"measurement": "body weight loss in other species", "setting": "[4]; toxicity studies (data not shown)", "value": "did not lead to significant body weight loss"}]}
